Legend:
[1] = tested on: NRG1-induced erbB receptor phosphorylation (p185) in L6 cells; assay: Inhibition of NRG1-induced p185 by heparins in L6 cells; format: cell-based; settings: for inhibition of NRG1-induced erbB receptor phosphorylation (p185): 75 pM IgEGF NRG1 pre-incubated with heparin 20 minutes, L6 cells 45 minutes
Procedure: (§1) Cell Cultures and Western Blots for p185 phosphorylation—L6 Cells were used to quantify erbB receptor phosphotyrosine (p185) as described (WO 03/012045; Li & Loeb, supra). Cells were plated at 50,000 cells/well and grown for 8 days. Chlorate was filter sterilized and incubated with L6 cells for 2 days prior to the assay. Inhibition assays of p185 were performed by pre-incubating 75 pM of IgEGF NRG1 and various concentrations of the heparins at room temp for 20 minutes. 150 μL of this mixture was then applied to 8 day-old L6 cells for 45 minutes at 37° C. in […]. The medium was aspirated, and the cells were solubilized in 50 μL sample buffer and boiled for 5 minutes as described previously (WO 03/012045; Li & Loeb, supra) 15 μL of this was resolved on a 5% denaturing polyacrylamide gel. Phosphorylated forms of the erbB receptors (p185) were detected by western blot analysis using the phosphotyrosine monoclonal antibody 4G10 (Upstate) and then verified and quantified by reprobing with a mixture of antibodies against erbB2 (Neomarkers Ab-17) and erbB3 (Neomarkers Ab-6). Quantitation was performed by determining the ratio of p185/(erbB2+erbB3) using Metamorph Imaging System (Universal Imaging Corp) on non-saturated images as described (Esper, R M & Loeb, J A (2004) J Neurosci 24:6218-27)

NRG1 = molecular target: T1, NRG1 (Homo sapiens, UniProt Q02297); assay: Gel mobility shift assay (GMSA); format: binding; settings: 35 ng NRG1, 20 minutes; heparins at 0, 1, 10, 100 μg/ml
T1 construct: the intact IgEGF form of NRG1 corresponds to amino acids 14-246; purchased R&D (Minneapolis Minn.)
T1 sequence (Q02297 14-246 isoform Q02297-6): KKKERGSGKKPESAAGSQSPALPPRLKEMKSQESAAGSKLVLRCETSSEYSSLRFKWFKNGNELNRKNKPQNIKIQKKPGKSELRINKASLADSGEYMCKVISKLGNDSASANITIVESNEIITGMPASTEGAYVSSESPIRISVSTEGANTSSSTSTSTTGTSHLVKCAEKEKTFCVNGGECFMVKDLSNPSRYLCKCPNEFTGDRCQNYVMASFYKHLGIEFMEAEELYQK
Procedure: Gel Mobility Shift Assay (GMSA)—NRG1 alone, or NRG1 plus various heparins at various concentrations were incubated with binding buffer (2.7 mM KCl, 4.3 mM Na2HPO4, 10 mM MgCl2, 1.4 mM KH2PO4, 12% glycerol, 1 mM DTT.) for 20 minutes and run on a 6% (29:1 acrylamide:bis) non-denaturing gel (10 mM Tris (pH 7.4), 1 mM EDTA) for 20 minutes at 200 V as described (Wu, Z L et al. (2002) FASEB J 16, 539-45; Wu, Z L et al. (2003) J Biol Chem 278:17121-29). […] However, band resolution was sharper at pH 8.0 and was therefore used for our studies here. Protein was transferred to a polyvinylidene fluoride membrane (Millipore corp.) for 1 hr at 100V. NRG1 bands were detected by western blot analysis using a polyclonal rabbit antiserum (AD03) developed against the IgEGF polypeptide (Assay Designs Inc.). The filters were then probed with a goat anti-rabbit antibody coupled to peroxidase (Chemicon), exposed to X-blue film (Eastman Kodak Co.) after treatment with chemiluminescence reagents, and bands were quantified as above.

[2] = tested on: erbB phosphorylation (p185) in L6 muscle cells; assay: NRG1-induced erbB phosphorylation after reducing endogenous HSPG sulfation; format: cell-based; settings: chlorate 48 hours
Procedure: as §1, with “24:6218-27) […]” for “24:6218-27)”

[3] = tested on: erbB receptor phosphorylation (p185) in MCF10CA1 cells; assay: p185 receptor phosphorylation western blot, MCF10CA1; format: cell-based, human; settings: for exogenous NRG-induced p185 erbB receptor phosphorylation: AG1478 or 100 μg/ml Trastuzumab (24 h pre-treatment)
Procedure: Western blots and L6 muscle assays: P185 receptor phosphorylation of the three cell lines was measured by phosphotyrosine western blots after NRG treatment for 30 min on 3 day old cultures as described in WO 03/012045 and Li Q & Loeb J A (2001) J Biol Chem; 276:38068-75. […] The media was discarded and phosphotyrosine western blots were performed as above. The membranes were stripped and reprobed with polyclonal rabbit erbB2 for the detection of overall erbB2 protein that was used for quantitation.
(§2) After 2 days, the Optimem I conditioned media was concentrated by Centricon at 4° C. 40 μl of IgB4 conditioned media or 10 μM of tyrosine kinase inhibitor AG1478 were combined with […] 1 nM NRG in MCF10A/AT media for 15 min at room temperature before being added to MCF10CA1 cells for 30 min treatment. […] The amount of each antagonist was determined empirically based on its ability to block NRG-induced activation of L6 cells.

[4] = tested on: MCF10CA1 human breast cancer cells; assay: Cell proliferation assay, MCF10CA1; format: cell-based; settings: IgB4 conditioned media, 10 μM AG1478 or 100 μg/ml Trastuzumab; for MCF10CA1 proliferation with exogenous NRG: 1 nM NRG
Procedure: Cell proliferation assays: All three breast epithelial cell lines were plated at 5000 cells/well in 48 well plates in regular MCF10A/AT or MCF10CA1 media. After incubation for 3 days, 1 nM NRG in MCF10A/AT media or just MCF10A/AT media alone were applied to the cells for another 24 hours followed by washing them with culture media and then counting cell numbers using an hemocytometer on the 4th, 5th, 6th, 7th and 8th day.
as §2

[5] = 1 nM NRG, 30 min, IgB4 conditioned media

Molecule: De-2O sulfated heparin
- inhibition of NRG1-induced erbB receptor phosphorylation (p185) [1]: intermediate effects
- shift of NRG1 mobility (NRG1 binding) (NRG1): shifted NRG1 better than De-N sulfated heparin but less than fully sulfated heparin

Molecule: [O-][Cl+2]([O-])O [chlorate, Sodium chlorate]
- reduction of receptor phosphorylation, EGF form ([2]; EGF form lacking the heparin-binding domain): no reduction
- reduction of receptor phosphorylation, IgEGF NRG1 ([2]; full-length heparin-binding NRG1 (IgEGF)): 53%

Molecule: De-N sulfated heparin
- inhibition of NRG1-induced erbB receptor phosphorylation (p185) [1]: little inhibition even at 100 μg/ml
- effect on receptor phosphorylation at low concentration ([1]; 1 μg/ml): modest stimulatory effect
- shift of NRG1 mobility (NRG1 binding) (NRG1): did not shift NRG1

Molecule: COc1cc2ncnc(Nc3cccc(Cl)c3)c2cc1OC [AG1478, reference compound]
- EGF receptor phosphorylation (lower band) ([3]; 1 nM NRG, 30 min): reducing both p185 (erbB2/3, upper band) and EGF receptor phosphorylation (lower band) in a dose dependent manner
- exogenous NRG-induced p185 erbB receptor phosphorylation [3, 5]: blocked NRG-induced erbB signaling
- MCF10CA1 proliferation with exogenous NRG [4]: reduced the growth rate
- MCF10CA1 growth rate without exogenous NRG [4]: reduced the growth rate

Molecule: De-6O sulfated heparin
- inhibition of NRG1-induced erbB receptor phosphorylation (p185) [1]: intermediate effects
- shift of NRG1 mobility (NRG1 binding) (NRG1): shifted NRG1 better than De-N sulfated heparin but less than fully sulfated heparin

Molecule: heparin
- inhibition of NRG1-induced erbB receptor phosphorylation (p185) [1]: inhibited by fully-sulfated heparin in a dose-dependent manner
- shift of NRG1 mobility (NRG1 binding) (NRG1): shift NRG1 in a dose-dependent manner

B1: IgB4: soluble NRG antagonist: ECD of erbB4 receptor fused to Fc portion of human IgG1 (protein)
chain: QSVCAGTENKLSSLSDLEQQYRALRKYYENCEVVMGNLEITSIEHNRDLSFLRSVREVTGYVLVALNQFRYLPLENLRIIRGTKLYEDRYALAIFLNYRKDGNFGLQELGLKNLTEILNGGVYVDQNKFLCYADTIHWQDIVRNPWPSNLTLVSTNGSSGCGRCHKSCTGRCWGPTENHCQTLTRTVCAEQCDGRCYGPYVSDCCHRECAGGCSGPKDTDCFACMNFNDSGACVTQCPQTFVYNPTTFQLEHNFNAKYTYGAFCVKKCPHNFVVDSSSCVRACPSSKMEVEENGIKMCKPCTDICPKACDGIGTGSLMSAQTVDSSNIDKFINCTKINGNLIFLVTGIHGDPYNAIEAIDPEKLNVFRTVREITGFLNIQSWPPNMTDFSVFSNLVTIGGRVLYSGLSLLILKQQGITSLQFQSLKEISAGNIYITDNSNLCYYHTINWTTLFSTINQRIVIRDNRKAENCTAEGMVCNHLCSSDGCWGPGPDQCLSCRRFSRGRICIESCNLYDGEFREFENGSICVECDPQCEKMEDGLLTCHGPGPDNCTKCSHFKDGPNCVEKCPDGLQGANSFIFKYADPDRECHPCHPNCTQGCNGPTSHDCIYYPWTGHSTLPQHARTP
modifications: left off: a dimerising Fc or GST
notes: soluble NRG antagonist: ECD of erbB4 receptor fused to Fc portion of human IgG1
- exogenous NRG-induced p185 erbB receptor phosphorylation [3, 5]: effectively blocked
- basal p185 erbB receptor phosphorylation ([3]; no exogenous NRG, IgB4 conditioned media, 10 μM AG1478 or 100 μg/ml Trastuzumab (24 h pre-treatment)): effectively blocked
- MCF10CA1 proliferation with exogenous NRG [4]: blocked MCF10CAL cell proliferation induced by exogenous NRG treatment
- MCF10CA1 growth rate without exogenous NRG [4]: significantly reduced the baseline growth rate

Reference: patent US7994123B2, “Hybrid proteins with ErbB4 extracellular domain and neuregulin heparin-binding domain for targeting” (Wayne State University, priority 2004, dated 2011)
